Reference: the supplement of paper PMC11061612

How the values were obtained:
Assay in all cases: combination Emax (second highest fraction inhibited in the dose matrix, 72 h); higher = more inhibition; extreme values may be limits of the assay
[1] = system: NCI-H2141 (Small Cell Lung Carcinoma)
Procedure, shortened: (§1)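 Cell lines in DMEM/F12 or RPMI with 10% FBS were plated in 1536-well plates, held 24 hours at 37°C, 5% CO2, then given two-drug dose matrices for 72 hours (DMSO typically 0.2%). Viability was read by CellTiter-Glo 2.0 luminescence and scaled as inhibition from 0 (vehicle wells) to 1 (blank wells). Combination Emax is the second-highest inhibition in the matrix; Bliss excess is observed combination effect minus expected EA + EB − EA·EB, EA and EB being single-agent effects.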

[2] = system: COLO-320-HSR (Colorectal Carcinoma)
Procedure, shortened: as §1

[3] = system: COR-L311 (Small Cell Lung Carcinoma)
Procedure, shortened: as §1

LN-405 (Glioblastoma) = system: LN-405 (Glioblastoma)
Procedure, shortened: as §1

[4] = system: NCI-H1693 (Lung Adenocarcinoma)
Procedure, shortened: as §1

A498 (Kidney Carcinoma) = system: A498 (Kidney Carcinoma)
Procedure, shortened: as §1

SMILES	combination Emax [1]	combination Emax [2]	combination Emax [3]	combination Emax (LN-405 (Glioblastoma))	combination Emax [4]	combination Emax (A498 (Kidney Carcinoma))
CN(CCO)CC[C@H](CSc1ccccc1)Nc1ccc(S(=O)(=O)NC(=O)c2ccc(N3CCC([C@@H](O)c4ccccc4-c4ccc(Cl)cc4)CC3)cc2)cc1S(=O)(=O)C(F)(F)F [AZD4320] + Cn1cnc2c(F)c(Nc3ccc(Br)cc3Cl)c(C(=O)NOCCO)cc21 [Selumetinib] (first compound max 1 µM, 7x7, partner max 3 µM)	0.893	0.198	1	0.646	0.459	0.694
CC(=O)c1c(C)c2cnc(Nc3ccc(N4CCNCC4)cn3)nc2n(C2CCCC2)c1=O [Palbociclib] + CC1(C)CCC(CN2CCN(c3ccc(C(=O)NS(=O)(=O)c4ccc(NCC5CCOCC5)c([N+](=O)[O-])c4)c(Oc4cnc5[nH]ccc5c4)c3)CC2)=C(c2ccc(Cl)cc2)C1 [Venetoclax] (first compound max 10 µM, 7x7, partner max 1 µM)	0.196	0.15	0.632	0.17	0.33	0.318
CC1(C)CCC(CN2CCN(c3ccc(C(=O)NS(=O)(=O)c4ccc(NCC5CCOCC5)c([N+](=O)[O-])c4)c(Oc4cnc5[nH]ccc5c4)c3)CC2)=C(c2ccc(Cl)cc2)C1 [Venetoclax] + COc1cc(Nc2ncc3c(n2)-c2ccc(Cl)cc2C(c2c(F)cccc2OC)=NC3)ccc1C(=O)O [Alisertib] (first compound max 1 µM, 7x7, partner max 10 µM)	0.518	0.296	0.842	0.513	0.344	0.386
Cc1c2c(nn1C)CSCc1cc(n(C)n1)CSc1cc(c3ccccc3c1)OCCCc1c(C(=O)O)n(C)c3c-2c(Cl)ccc13 [AZD5991] + C=CCn1c(=O)c2cnc(Nc3ccc(N4CCN(C)CC4)cc3)nc2n1-c1cccc(C(C)(C)O)n1 [AZD1775] (first compound max 1 µM, partner max 1 µM)	0.652	0.801	0.812	0.55	0.386	0.602
COc1nnc2ccc(N3CCC(c4ccc(OCCN5CCN(C)C(=O)[C@H]5C)cc4)CC3)nn12 [AZD5153] + Cc1c2c(nn1C)CSCc1cc(n(C)n1)CSc1cc(c3ccccc3c1)OCCCc1c(C(=O)O)n(C)c3c-2c(Cl)ccc13 [AZD5991] (first compound max 1 µM, 7x7, partner max 1 µM)	0.346	0.89	0.971	0.574	0.56	0.529
COc1nnc2ccc(N3CCC(c4ccc(OCCN5CCN(C)C(=O)[C@H]5C)cc4)CC3)nn12 [AZD5153] + CC1(C)CCC(CN2CCN(c3ccc(C(=O)NS(=O)(=O)c4ccc(NCC5CCOCC5)c([N+](=O)[O-])c4)c(Oc4cnc5[nH]ccc5c4)c3)CC2)=C(c2ccc(Cl)cc2)C1 [Venetoclax] (first compound max 1 µM, 7x7, partner max 1 µM)	0.262	0.442	0.934	0.441	0.514	0.439
CN(CCO)CC[C@H](CSc1ccccc1)Nc1ccc(S(=O)(=O)NC(=O)c2ccc(N3CCC([C@@H](O)c4ccccc4-c4ccc(Cl)cc4)CC3)cc2)cc1S(=O)(=O)C(F)(F)F [AZD4320] + C=CCn1c(=O)c2cnc(Nc3ccc(N4CCN(C)CC4)cc3)nc2n1-c1cccc(C(C)(C)O)n1 [AZD1775] (first compound max 1 µM, partner max 1 µM)	1	0.632	1	0.379	0.355	0.628
NC1(C(=O)N[C@@H](CCO)c2ccc(Cl)cc2)CCN(c2ncnc3[nH]ccc23)CC1 [Capivasertib] + COc1nnc2ccc(N3CCC(c4ccc(OCCN5CCN(C)C(=O)[C@H]5C)cc4)CC3)nn12 [AZD5153] (first compound max 10 µM, 7x7, partner max 1 µM)	0.377	0.242	1	0.623	0.554	0.824
COc1nnc2ccc(N3CCC(c4ccc(OCCN5CCN(C)C(=O)[C@H]5C)cc4)CC3)nn12 [AZD5153] + Cn1cnc2c(F)c(Nc3ccc(Br)cc3Cl)c(C(=O)NOCCO)cc21 [Selumetinib] (first compound max 1 µM, 7x7, partner max 10 µM)	0.276	0.333	0.847	0.332	0.569	0.867
Cc1c2c(nn1C)CSCc1cc(n(C)n1)CSc1cc(c3ccccc3c1)OCCCc1c(C(=O)O)n(C)c3c-2c(Cl)ccc13 [AZD5991] + CCN(CCO)CCCOc1ccc2c(Nc3cc(CC(=O)Nc4cccc(F)c4)[nH]n3)ncnc2c1 [AZD2811] (first compound max 1 µM, 7x7, partner max 1 µM)	0.428	0.827	0.906	0.437	0.211	0.352
C[C@@H]1COCCN1c1cc(C2([S@](C)(=N)=O)CC2)nc(-c2ccnc3[nH]ccc23)n1 [AZD6738] + O=C(c1cc(Cc2n[nH]c(=O)c3ccccc23)ccc1F)N1CCN(C(=O)C2CC2)CC1 [Olaparib] (first compound max 10 µM, 7x7, partner max 10 µM)	0.51	0.475	0.509	0.391	0.298	0.636
Cn1cnc2c(F)c(Nc3ccc(Br)cc3Cl)c(C(=O)NOCCO)cc21 [Selumetinib] + CCN(CCO)CCCOc1ccc2c(Nc3cc(CC(=O)Nc4cccc(F)c4)[nH]n3)ncnc2c1 [AZD2811] (first compound max 10 µM, 7x7, partner max 1 µM)	0.167	0.249	0.733	0.242	0.286	0.383
CC(=O)c1c(C)c2cnc(Nc3ccc(N4CCNCC4)cn3)nc2n(C2CCCC2)c1=O [Palbociclib] + Cc1c2c(nn1C)CSCc1cc(n(C)n1)CSc1cc(c3ccccc3c1)OCCCc1c(C(=O)O)n(C)c3c-2c(Cl)ccc13 [AZD5991] (first compound max 10 µM, 7x7, partner max 1 µM)	0.309	0.965	0.534	0.208	0.431	0.406
CCN(CCO)CCCOc1ccc2c(Nc3cc(CC(=O)Nc4cccc(F)c4)[nH]n3)ncnc2c1 [AZD2811] + C=CCn1c(=O)c2cnc(Nc3ccc(N4CCN(C)CC4)cc3)nc2n1-c1cccc(C(C)(C)O)n1 [AZD1775] (first compound max 1 µM, partner max 1 µM)	0.502	0.631	0.592	0.199	0.225	0.458
CN(CCO)CC[C@H](CSc1ccccc1)Nc1ccc(S(=O)(=O)NC(=O)c2ccc(N3CCC([C@@H](O)c4ccccc4-c4ccc(Cl)cc4)CC3)cc2)cc1S(=O)(=O)C(F)(F)F [AZD4320] + C[C@@H](Nc1cc(F)cc(F)c1)c1cc(C(=O)N(C)C)cc2c(=O)cc(N3CCOCC3)oc12 [AZD8186] (first compound max 1 µM, 7x7, partner max 3 µM)	0.886	0.236	1	0.615	0.386	0.911
NC1(C(=O)N[C@@H](CCO)c2ccc(Cl)cc2)CCN(c2ncnc3[nH]ccc23)CC1 [Capivasertib] + CC(=O)c1c(C)c2cnc(Nc3ccc(N4CCNCC4)cn3)nc2n(C2CCCC2)c1=O [Palbociclib] (first compound max 10 µM, 7x7, partner max 10 µM)	0.299	0.263	0.68	0.577	0.485	0.629
COc1nnc2ccc(N3CCC(c4ccc(OCCN5CCN(C)C(=O)[C@H]5C)cc4)CC3)nn12 [AZD5153] + CCN(CCO)CCCOc1ccc2c(Nc3cc(CC(=O)Nc4cccc(F)c4)[nH]n3)ncnc2c1 [AZD2811] (first compound max 1 µM, 7x7, partner max 1 µM)	0.297	0.503	0.936	0.515	0.46	0.459
Cc1c2c(nn1C)CSCc1cc(n(C)n1)CSc1cc(c3ccccc3c1)OCCCc1c(C(=O)O)n(C)c3c-2c(Cl)ccc13 [AZD5991] + Cn1cnc2c(F)c(Nc3ccc(Br)cc3Cl)c(C(=O)NOCCO)cc21 [Selumetinib] (first compound max 1 µM, 7x7, partner max 3 µM)	0.22	0.801	0.247	0.383	0.319	0.611
